Values quoted from earlier work as cited in patent publication US11844805B2, “Formulations of testosterone and methods of treatment therewith” (BOARD OF REGENTS, THE UNIVERSITY OF TEXAS SYSTEM, priority 2014, dated 2023).

Legend:
[1] = women, single dose, sublingual
[2] = intranasal administration; baseline mean 2.5 pmol/L

For `C[C@]12CC[C@H]3[C@@H](CCC4=CC(=O)CC[C@@]43C)[C@@H]1CC[C@@H]2O` [testosterone], the “effect on subjective sexual desire, genital responsiveness and genital arousal” value [1] is listed as “increase subjective sexual desire, genital responsiveness, and genital arousal” and the “maximum testosterone concentration (mean)” value [2] is listed as 168.2 pmol/L.
